ChEMBL document CHEMBL5523749, “Amphiphilic Heparinoids as Potent Antiviral Agents against SARS-CoV-2” (J Med Chem, 2024)
Values after ≈ are worked out from the molar mass of the structure shown.

Assays:
[1] = tested on: SARS-CoV-2; assay type: functional, organism-based, Severe acute respiratory syndrome coronavirus 2, G614, Vero E6
[2] = tested on: SARS-CoV-2; experiment: microbe, parasite or virus in culture; settings: Severe acute respiratory syndrome coronavirus 2, D614, Vero C1008
Description: Antiviral activity against SARS-CoV-2 D614 isolates infected in African green monkey Vero E6 cells assessed as reduction in plaque formation treated for 1 hr prior to infection with cells incubated for 30 mins by plaque reduction neutralization test

[3] = target: Spike glycoprotein (Severe acute respiratory syndrome coronavirus 2, UniProt P0DTC2); experiment: Binding affinity to RBD domain of SARS-CoV-2 spike protein assessed as dissociation constant by Isothermal Titration Calorimetry
[4] = Severe acute respiratory syndrome coronavirus 2, G614, Vero C1008, read-out: IC50

SMILES	IC50 [1, 4] [µg/mL]	IC50 [2] [µg/mL]	IC50 ([1]; vero e6)	Kd [3] [µM]
CC(C)CCC[C@@H](C)[C@H]1CC[C@H]2[C@@H]3CC[C@H]4C[C@@H](O[C@@H]5O[C@H](COS(=O)(=O)[O-])[C@@H](O[C@H]6O[C@H](COS(=O)(=O)[O-])[C@@H](O[C@H]7O[C@H](COS(=O)(=O)[O-])[C@@H](O[C@H]8O[C@H](COS(=O)(=O)[O-])[C@@H](O[C@H]9O[C@H](COS(=O)(=O)[O-])[C@@H](O[C@H]%10O[C@H](COS(=O)(=O)[O-])[C@@H](OS(=O)(=O)[O-])[C@H](OS(=O)(=O)[O-])[C@H]%10OS(=O)(=O)[O-])[C@H](OS(=O)(=O)[O-])[C@H]9OS(=O)(=O)[O-])[C@H](OS(=O)(=O)[O-])[C@H]8OS(=O)(=O)[O-])[C@H](OS(=O)(=O)[O-])[C@H]7OS(=O)(=O)[O-])[C@H](OS(=O)(=O)[O-])[C@H]6OS(=O)(=O)[O-])[C@H](OS(=O)(=O)[O-])[C@H]5OS(=O)(=O)[O-])CC[C@]4(C)[C@H]3CC[C@]12C.[Na+].[Na+].[Na+].[Na+].[Na+].[Na+].[Na+].[Na+].[Na+].[Na+].[Na+].[Na+].[Na+].[Na+].[Na+].[Na+].[Na+].[Na+].[Na+]	65.9	11.9		
CC(C)CCC[C@@H](C)[C@H]1CC[C@H]2[C@@H]3CC[C@H]4C[C@@H](O[C@@H]5O[C@@H](COS(=O)(=O)O)[C@@H](O[C@@H]6O[C@@H](COS(=O)(=O)O)[C@@H](OS(=O)(=O)O)[C@H](O)[C@H]6OS(=O)(=O)O)[C@H](O)[C@H]5OS(=O)(=O)O)CC[C@]4(C)[C@H]3CC[C@]12C		32.1 (≈ 28.8 µM)		
CC(C)CCC[C@@H](C)[C@H]1CC[C@H]2[C@@H]3CC[C@H]4C[C@@H](O[C@H]5O[C@H](COS(=O)(=O)[O-])[C@@H](O[C@H]6O[C@H](COS(=O)(=O)[O-])[C@@H](O[C@H]7O[C@H](COS(=O)(=O)[O-])[C@@H](O[C@H]8O[C@H](COS(=O)(=O)[O-])[C@@H](OS(=O)(=O)[O-])[C@H](OS(=O)(=O)[O-])[C@H]8OS(=O)(=O)[O-])[C@H](OS(=O)(=O)[O-])[C@H]7OS(=O)(=O)[O-])[C@H](OS(=O)(=O)[O-])[C@H]6OS(=O)(=O)[O-])[C@H](OS(=O)(=O)[O-])[C@H]5OS(=O)(=O)[O-])CC[C@]4(C)[C@H]3CC[C@]12C.[Na+].[Na+].[Na+].[Na+].[Na+].[Na+].[Na+].[Na+].[Na+].[Na+].[Na+].[Na+].[Na+]		148	Not Active	
CC(C)CCC[C@@H](C)[C@H]1CC[C@H]2[C@@H]3CC[C@H]4C[C@@H](O[C@@H]5O[C@@H](COS(=O)(=O)O)[C@@H](O[C@@H]6O[C@@H](COS(=O)(=O)O)[C@@H](O[C@@H]7O[C@@H](COS(=O)(=O)O)[C@@H](OS(=O)(=O)O)[C@H](O)[C@H]7OS(=O)(=O)O)[C@H](O)[C@H]6OS(=O)(=O)O)[C@H](O)[C@H]5OS(=O)(=O)O)CC[C@]4(C)[C@H]3CC[C@]12C		26.9 (≈ 18.7 µM)		2.11
[N-]=[N+]=NCCCCCCCCCCC(=O)NCCCCCCO[C@@H]1O[C@H](COS(=O)(=O)[O-])[C@@H](O[C@H]2O[C@H](COS(=O)(=O)[O-])[C@@H](O[C@H]3O[C@H](COS(=O)(=O)[O-])[C@@H](O[C@H]4O[C@H](COS(=O)(=O)[O-])[C@@H](OS(=O)(=O)[O-])[C@H](OS(=O)(=O)[O-])[C@H]4OS(=O)(=O)[O-])[C@H](OS(=O)(=O)[O-])[C@H]3OS(=O)(=O)[O-])[C@H](OS(=O)(=O)[O-])[C@H]2OS(=O)(=O)[O-])[C@H](OS(=O)(=O)[O-])[C@H]1OS(=O)(=O)[O-].[Na+].[Na+].[Na+].[Na+].[Na+].[Na+].[Na+].[Na+].[Na+].[Na+].[Na+].[Na+].[Na+]	158	101		
CC(C)CCC[C@@H](C)[C@H]1CC[C@H]2[C@@H]3CC[C@H]4C[C@@H](O[C@@H]5O[C@@H](COS(=O)(=O)O)[C@@H](O[C@@H]6O[C@@H](COS(=O)(=O)O)[C@@H](O[C@@H]7O[C@@H](COS(=O)(=O)O)[C@@H](O[C@@H]8O[C@@H](COS(=O)(=O)O)[C@@H](OS(=O)(=O)O)[C@H](O)[C@H]8OS(=O)(=O)O)[C@H](O)[C@H]7OS(=O)(=O)O)[C@H](O)[C@H]6OS(=O)(=O)O)[C@H](O)[C@H]5OS(=O)(=O)O)CC[C@]4(C)[C@H]3CC[C@]12C		27.5 (≈ 15.6 µM)		
C[C@H](CCC[C@@H](C)[C@H]1CC[C@@H]2C1CC[C@H]1[C@H]2CC[C@H]2C[C@@H](O[C@@H]3O[C@H](COS(=O)(=O)[O-])[C@@H](O[C@H]4O[C@H](COS(=O)(=O)[O-])[C@@H](O[C@H]5O[C@H](COS(=O)(=O)[O-])[C@@H](O[C@H]6O[C@H](COS(=O)(=O)[O-])[C@@H](OS(=O)(=O)[O-])[C@H](OS(=O)(=O)[O-])[C@H]6OS(=O)(=O)[O-])[C@H](OS(=O)(=O)[O-])[C@H]5OS(=O)(=O)[O-])[C@H](OS(=O)(=O)[O-])[C@H]4OS(=O)(=O)[O-])[C@H](OS(=O)(=O)[O-])[C@H]3OS(=O)(=O)[O-])CC[C@@]21C)CN=[N+]=[N-].[Na+].[Na+].[Na+].[Na+].[Na+].[Na+].[Na+].[Na+].[Na+].[Na+].[Na+].[Na+].[Na+] (stereo partly drawn)	109	16.7		
CC(C)CCC[C@@H](C)[C@H]1CC[C@H]2[C@@H]3CC[C@H]4C[C@@H](O[C@@H]5O[C@@H](C(=O)O)[C@@H](O[C@@H]6O[C@@H](C(=O)O)[C@@H](O[C@@H]7O[C@@H](C(=O)O)[C@@H](O[C@@H]8O[C@@H](C(=O)O)[C@@H](OS(=O)(=O)O)[C@H](O)[C@H]8OS(=O)(=O)O)[C@H](O)[C@H]7OS(=O)(=O)O)[C@H](O)[C@H]6OS(=O)(=O)O)[C@H](O)[C@H]5OS(=O)(=O)O)CC[C@]4(C)[C@H]3CC[C@]12C		48.5 (≈ 32.5 µM)		
CCCCCCCCCCCCCCCCCC(=O)NCCCO[C@@H]1O[C@H](COS(=O)(=O)[O-])[C@@H](O[C@H]2O[C@H](COS(=O)(=O)[O-])[C@@H](O[C@H]3O[C@H](COS(=O)(=O)[O-])[C@@H](O[C@H]4O[C@H](COS(=O)(=O)[O-])C(S(=O)(=O)[O-])[C@H](OS(=O)(=O)[O-])[C@H]4OS(=O)(=O)[O-])[C@H](OS(=O)(=O)[O-])[C@H]3OS(=O)(=O)[O-])[C@H](OS(=O)(=O)[O-])[C@H]2OS(=O)(=O)[O-])[C@H](OS(=O)(=O)[O-])[C@H]1OS(=O)(=O)[O-].[Na+].[Na+].[Na+].[Na+].[Na+].[Na+].[Na+].[Na+].[Na+].[Na+].[Na+].[Na+].[Na+] (stereo partly drawn)	70.8	19.5		
C#CCNC(=O)CC[C@@H](C)[C@H]1CC[C@H]2[C@@H]3CC[C@@H]4C[C@H](O[C@@H]5O[C@H](COS(=O)(=O)[O-])[C@@H](O[C@H]6O[C@H](COS(=O)(=O)[O-])[C@@H](O[C@H]7O[C@H](COS(=O)(=O)[O-])[C@@H](O[C@H]8O[C@H](COS(=O)(=O)[O-])[C@@H](OS(=O)(=O)[O-])[C@H](OS(=O)(=O)[O-])[C@H]8OS(=O)(=O)[O-])[C@H](OS(=O)(=O)[O-])[C@H]7OS(=O)(=O)[O-])[C@H](OS(=O)(=O)[O-])[C@H]6OS(=O)(=O)[O-])[C@H](OS(=O)(=O)[O-])[C@H]5OS(=O)(=O)[O-])CC[C@]4(C)[C@H]3CC[C@]12C.[Na+].[Na+].[Na+].[Na+].[Na+].[Na+].[Na+].[Na+].[Na+].[Na+].[Na+].[Na+].[Na+]		85.3	Not Active	
CC(C)CCC[C@@H](C)[C@H]1CC[C@H]2[C@@H]3CC[C@H]4C[C@@H](OCc5cn(CCCO[C@@H]6O[C@H](COS(=O)(=O)[O-])[C@@H](O[C@H]7O[C@H](COS(=O)(=O)[O-])[C@@H](O[C@H]8O[C@H](COS(=O)(=O)[O-])[C@@H](O[C@H]9O[C@H](COS(=O)(=O)[O-])[C@@H](OS(=O)(=O)[O-])[C@H](OS(=O)(=O)[O-])[C@H]9OS(=O)(=O)[O-])[C@H](OS(=O)(=O)[O-])[C@H]8OS(=O)(=O)[O-])[C@H](OS(=O)(=O)[O-])[C@H]7OS(=O)(=O)[O-])[C@H](OS(=O)(=O)[O-])[C@H]6OS(=O)(=O)[O-])nn5)CC[C@]4(C)[C@H]3CC[C@]12C.[Na+].[Na+].[Na+].[Na+].[Na+].[Na+].[Na+].[Na+].[Na+].[Na+].[Na+].[Na+].[Na+]	310	115		
CC(C)CCC[C@@H](C)[C@H]1CC[C@H]2[C@@H]3CC[C@H]4C[C@@H](O[C@@H]5O[C@@H](C(=O)O)[C@@H](O[C@@H]6O[C@@H](C(=O)O)[C@@H](O[C@@H]7O[C@@H](C(=O)O)[C@@H](OS(=O)(=O)O)[C@H](O)[C@H]7OS(=O)(=O)O)[C@H](O)[C@H]6OS(=O)(=O)O)[C@H](O)[C@H]5OS(=O)(=O)O)CC[C@]4(C)[C@H]3CC[C@]12C		30.4 (≈ 24.6 µM)		9.18
O=C(CCCCCCCCCCn1cc(CNc2ccc([N+](=O)[O-])c3nonc23)nn1)NCCCCCCCCCCCO[C@@H]1O[C@H](COS(=O)(=O)[O-])[C@@H](O[C@H]2O[C@H](COS(=O)(=O)[O-])[C@@H](O[C@H]3O[C@H](COS(=O)(=O)[O-])[C@@H](O[C@H]4O[C@H](COS(=O)(=O)[O-])[C@@H](OS(=O)(=O)[O-])[C@H](OS(=O)(=O)[O-])[C@H]4OS(=O)(=O)[O-])[C@H](OS(=O)(=O)[O-])[C@H]3OS(=O)(=O)[O-])[C@H](OS(=O)(=O)[O-])[C@H]2OS(=O)(=O)[O-])[C@H](OS(=O)(=O)[O-])[C@H]1OS(=O)(=O)[O-].[Na+].[Na+].[Na+].[Na+].[Na+].[Na+].[Na+].[Na+].[Na+].[Na+].[Na+].[Na+].[Na+]		166	Not Active	
